According to PMC5059489, “Mechanistic evaluation and transcriptional signature of a glutathione S-transferase omega 1 inhibitor” (Nature Communications, 2016):
Like-named read-outs stand apart in the source and are kept apart here.

Legend:
[1] = molecular target: T1, GSTO1 (Homo sapiens, UniProt P78417); assay: GSTO1 substrate assay (reduction of 4-NPG)
T1 sequence (P78417 1-241): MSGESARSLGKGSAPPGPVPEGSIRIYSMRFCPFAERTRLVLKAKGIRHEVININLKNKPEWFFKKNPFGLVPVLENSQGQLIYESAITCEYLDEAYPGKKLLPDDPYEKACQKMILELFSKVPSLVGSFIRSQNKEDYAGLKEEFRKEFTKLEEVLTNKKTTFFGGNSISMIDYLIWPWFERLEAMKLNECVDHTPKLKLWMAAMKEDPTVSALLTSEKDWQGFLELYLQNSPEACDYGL
Description: For activity screening, we adapted a GSTO1 substrate assay that relies on the quantification of the reduction of S-(4-nitrophenacyl)glutathione (4-NPG), a GSTO1-specific substrate[17], using recombinant human GSTO1 in a high-throughput screening format.
Enzyme activity was measured by monitoring the reduction of 4-NPG to 4-nitroacetophenone by GSTO1.

[2] = molecular target: T1, GSTO1; assay: In-gel fluorescence competitive CMFDA binding assay, recombinant GSTO1; settings: inhibition of CMFDA binding
Excerpt: (§1) Primary screening of GSTO inhibitors was based on competitive inhibition of CMFDA binding to endogenous GSTO. Briefly, HCT116^p53+/+ cells (4 × 10^4 per well) were coated in a 12-well plate. […] Cells were then washed with PBS and lysed using Cell Lytic M buffer (Sigma). […] Gels were immediately scanned on a Typhoon variable mode imager (Amersham Bioscience). Quantification of fluorescent band intensity was done using Image Quant 5.2 software.

[3] = molecular target: T2, endogenous GSTO1 (Homo sapiens, UniProt P78417); assay: In-gel fluorescence competitive CMFDA binding assay, endogenous GSTO1 in HCT116; settings: 10 µM; inhibition of CMFDA binding, HCT116
T2 sequence (P78417 1-241): T1 sequence (P78417 1-241)
Excerpt: as §1

[4] = read-out: GSTO substrate assay IC50, cluster screening tables

Row | IC50 ([1]; Substrate assay IC50, pilot screening) | GSTO substrate assay % Inhibition at 10 µM [1] | GSTO binding assay (% Inhibition at 10 µM) Recombinant [2] | GSTO binding assay (% Inhibition at 10 µM) Endogenous [3] | IC50 [1, 4] | Compound
1 | 80800 nM | – | – | – | – | O=C(CCl)Nc1ccccc1NC(=O)CCl [4c]
2 | – | -4.9% | 0.9% | 3.8% | – | O=C(CCl)Nc1c(Br)cc([N+](=O)[O-])cc1Br [C1-3]
3 | – | 22.7% | 45.6% | 87.6% | – | O=C(CCl)Nc1ccc(OC(F)F)cc1 [C1-6]
4 | – | 100.9% | 61.2% | 56.5% | 5680 nM | COC(=O)c1ccc(C(=O)OC)c(NC(=O)CCl)c1 [C1-8]
5 | – | 91.3% | 43.8% | 78.6% | – | CCN(c1ccc(NC(=O)CCl)cc1)C(C)C [C1-15]
6 | – | -8.4% | 69.9% | 58.2% | – | O=C(CCl)Nc1ccccc1N1CCOCC1 [C1-21]
7 | – | 75% | 75.9% | 80.8% | 79 nM | CCOc1ccc(NC(=O)CCl)cc1S(=O)(=O)N1CCCCC1 [C1-30]
8 | – | 84.2% | 4.4% | 48.2% | – | CCN(CC)c1ccc(S(=O)(=O)N2CCOCC2)cc1NC(=O)CCl [C1-32]
9 | – | -1.5% | 58.2% | 19.9% | – | CCOC(=O)c1sc(-c2ccccc2)cc1NC(=O)CCl [C2-11]
10 | – | 3.4% | 74.9% | 59.8% | – | CCOC(=O)c1c(-c2ccc(OC)c(OC)c2)csc1NC(=O)CCl [C2-12]
11 | – | 87.8% | 63.2% | 74.2% | 360 nM | Cc1c(-c2ccccc2)sc(NC(=O)CCl)c1C(=O)N1CCOCC1 [C2-15]
12 | – | 91.1% | 68.3% | 39.6% | – | O=C(CCl)Nc1sc2c(c1C(=O)c1ccccc1)CCCC2 [C2-20]
13 | – | 99.5% | 78.6% | 52.3% | 350 nM | CCOc1ccc(/C=C/C2=Cc3c(sc(NC(=O)CCl)c3C#N)C(C)(C)C2)cc1 [C2-21]
14 | – | 26.4% | 76.0% | – | – | Cc1cc(C)c(-c2csc(NC(=O)CCl)n2)cc1C [C2-23]
15 | – | 42.7% | 13.5% | 65.0% | – | CCC1(c2ccccc2)NC(=O)N(NC(=O)CCl)C1=O (stereo not drawn) [C2-29]
16 | – | 11.1% | 6.0% | 7.3% | – | O=C(CCl)NCc1ccccc1CN1CCOCC1 [C3-1]
17 | – | 93.2% | 47.9% | 52.0% | – | O=C(CCl)NCc1cc([N+](=O)[O-])ccc1O [C3-3]

Row | IC50 ([1]; Substrate assay IC50, pilot screening) | GSTO substrate assay % Inhibition at 10 µM [1] | GSTO binding assay (% Inhibition at 10 µM) Recombinant [2] | GSTO binding assay (% Inhibition at 10 µM) Endogenous [3] | IC50 [1, 4] | Compound
18 | – | 56.2% | 53.7% | 51.3% | 7880 nM | CC(C)c1ccc(C(NC(=O)CCl)C(C)C)cc1 (stereo not drawn) [C3-6]
19 | – | 62.6% | 25.1% | – | – | CCOc1ccc(OCCNC(=O)CCl)cc1 [C3-13]
20 | – | 5.1% | 35.7% | 86.9% | – | Cc1ccc(CSCCNC(=O)CCl)cc1 [C3-15]
21 | – | 0.6% | 0.3% | 37.5% | – | O=C(CCl)NC(=O)c1cccc2ccccc12 [C3-18]
22 | – | 99.5% | 59.2% | 65.2% | 508 nM | CCOc1ccc(NC(=O)NC(=O)CCl)cc1OCC [C3-19]
23 | – | 10.4% | -2.4% | -12.1% | – | COc1cc(C(=O)NNC(=O)CCl)cc(OC)c1OC [C3-22]
24 | – | 72.3% | 29.2% | 58.8% | – | Cc1cc(C)c(NC(=O)CNC(=O)CCl)c(C)c1 [C3-24]
25 | – | 69.5% | 68.2% | 42.2% | – | CCOC(=O)c1c(-c2ccccc2)csc1NC(=S)NC(=O)CCl [C3-26]
26 | – | 54.2% | 63.4% | 63.8% | 1650 nM | Cc1cccc(NC(=S)NC(NC(=O)CCl)C(Cl)(Cl)Cl)c1 (stereo not drawn) [C3-27]
27 | – | 83.1% | 10.6% | 14.5% | – | Cc1nn(Cc2ccccc2)c(C)c1CNC(=O)CCl [C3-30]
28 | – | 0.3% | -13.7% | 23.0% | – | O=C(CCl)NCC1(N2CCCCC2)CCCCC1 [C3-31]
29 | – | 12.5% | 23.6% | 53.1% | – | O=C(CCl)NCCN1C(=O)SC(=Cc2ccccc2F)C1=O [C3-32]
30 | – | -0.8% | 5.9% | 17.0% | – | CCN(C(=O)CCl)C1CCS(=O)(=O)C1 (stereo not drawn) [C4-4]
31 | – | 20.7% | 66.7% | 43.5% | – | CN(CCOc1ccc(Cl)cc1)C(=O)CCl [C4-9]
32 | – | 14.2% | 4.5% | 18.7% | – | COCCN(C(=O)CCl)c1c(N)n(Cc2ccccc2)c(=O)[nH]c1=O [C4-18]
33 | – | 91.8% | 61.2% | 60.9% | 496 nM | O=C(CCl)N1CCN(S(=O)(=O)c2ccc(F)c(F)c2)CC1 [C5-14]
34 | – | 69.5% | 9.4% | – | – | COc1cc2c(cc1OC)CN(C(=O)CCl)CC2 [C5-17]
